Assay results as given in ChEMBL document CHEMBL5579888, “A Comparative Study on the DNA Interactions and Biological Activities of Benzophenanthridine and Protoberberine Alkaloids” (J Nat Prod, 2024).
Activity calls are given as the source filed them. No cut-off for these calls is given here.

Columns and labels:
Calf thymus DNA = experiment: Displacement of Hoechst 33342 from calf thymus DNA incubated for 0.5 hrs by SpectraMax M2 microplate reader analysis; format: nucleic-acid assay, Bos taurus
Quadruplex DNA [1] = experiment: Displacement of ThT from human G4-quadruplex Oxy28 DNA 5'- GGGGTTTTGGGGTTTTGGGGTTTTGGGG -3' incubated for 0.5 hrs by SpectraMax M2 microplate reader analysis; format: nucleic-acid assay
Quadruplex DNA [2] = experiment: Displacement of ThT from human G4-quadruplex Pu27 DNA 5'- TGGGGAGGGTGGGGAGGGTGGGGAAGG-3' incubated for 0.5 hrs by SpectraMax M2 microplate reader analysis; format: nucleic-acid assay
A-375 [3] = experiment: Induction of apoptosis in human A-375 cells assessed assessed as early apoptotic cells at 5 uM incubated for 24 hrs by Annexin V-Elab Fluor 647/propidium iodide staining based flow cytometry (reference value: 1.14 %); format: functional
dsDNA [4] = experiment: Displacement of Hoechst 33342 from double stranded DNA ssab (unknown origin) incubated for 0.5 hrs by SpectraMax M2 microplate reader analysis; format: nucleic-acid assay
A-375 [5] = experiment: Induction of apoptosis in human A-375 cells assessed assessed as late apoptotic cells at 5 uM incubated for 24 hrs by Annexin V-Elab Fluor 647/propidium iodide staining based flow cytometry (reference value: 6.31 %); format: functional
Quadruplex DNA [6] = experiment: Binding affinity to human G4-quadruplex Bcl2 DNA 5'- CGGGCGCGGGAGGAAGGGGGCGGGAGC-3' at 20 uM by UV-Visible absorption spectroscopic analysis; format: nucleic-acid assay
Quadruplex DNA [7] = experiment: Displacement of ThT from human G4-quadruplex 22AG DNA 5'- AGGGTTAGGGTTAGGGTTAGGG -3' incubated for 0.5 hrs by SpectraMax M2 microplate reader analysis; format: nucleic-acid assay
Quadruplex DNA [8] = experiment: Displacement of ThT from human G4-quadruplex Bcl2 DNA 5'- CGGGCGCGGGAGGAAGGGGGCGGGAGC-3' incubated for 0.5 hrs by SpectraMax M2 microplate reader analysis; format: nucleic-acid assay
A-375 [9] = experiment: Induction of apoptosis in human A-375 cells assessed assessed as necrotic cells at 5 uM incubated for 24 hrs by Annexin V-Elab Fluor 647/propidium iodide staining based flow cytometry (reference value: 1.45 %); format: functional
A-375 [10] = experiment: Induction of apoptosis in human A-375 cells assessed assessed as viable cells at 5 uM incubated for 24 hrs by Annexin V-Elab Fluor 647/propidium iodide staining based flow cytometry (reference value: 91.1 %); format: functional; conditions: read-out: Activity
A-375 [11] = experiment: Induction of cell cycle arrest in human A-375 cells assessed assessed as cell accumulation at G0/G1 phase at 5 uM incubated for 24 hrs by propidium iodide staining based flow cytometry (reference value: 54.25 %); format: functional
Quadruplex DNA [12] = experiment: Binding affinity to human G4-quadruplex c-kit2 DNA 5'- CGGGCGGGCGCGAGGGAGGGT-3' at 20 uM by UV-Visible absorption spectroscopic analysis; format: nucleic-acid assay
Quadruplex DNA [13] = experiment: Binding affinity to human G4-quadruplex KRAS DNA 5'- AGGGCGGTGTGGGAAGAGGGAAGAGGGGGAGG-3' at 20 uM by UV-Visible absorption spectroscopic analysis; format: nucleic-acid assay
Quadruplex DNA [14] = experiment: Displacement of ThT from human G4-quadruplex VEGF DNA 5'- GGGCGGGCCGGGGGCGGG-3' incubated for 0.5 hrs by SpectraMax M2 microplate reader analysis; format: nucleic-acid assay
Quadruplex DNA [15] = experiment: Binding affinity to human G4-quadruplex Pu27 DNA 5'- TGGGGAGGGTGGGGAGGGTGGGGAAGG-3' at 20 uM by UV-Visible absorption spectroscopic analysis; format: nucleic-acid assay
Quadruplex DNA [16] = experiment: Binding affinity to human G4-quadruplex KRAS DNA 5'- AGGGCGGTGTGGGAAGAGGGAAGAGGGGGAGG-3' at 10 uM by CD spectra analysis; format: nucleic-acid assay
Quadruplex DNA [17] = experiment: Displacement of ThT from human G4-quadruplex KRAS DNA 5'- AGGGCGGTGTGGGAAGAGGGAAGAGGGGGAGG-3' incubated for 0.5 hrs by SpectraMax M2 microplate reader analysis; format: nucleic-acid assay
A-375 [18] = experiment: Induction of DNA damage in human A-375 cells assessed as appearance of long DNA tails at 5 uM incubated for 24 hrs by comet assay; format: functional, cell-based
A-375 [19] = experiment: Inhibition of DNA synthesis in human A-375 cells at 5 uM incubated for 24 hrs by Edu incorporation based flow cytometry analysis; format: functional, cell-based
dsDNA [20] = experiment: Binding affinity to double stranded DNA ssab (unknown origin) at 20 uM by UV-Visible absorption spectroscopic analysis; format: nucleic-acid assay
Quadruplex DNA [21] = experiment: Binding affinity to human G4-quadruplex VEGF DNA 5'- GGGCGGGCCGGGGGCGGG-3' at 20 uM by UV-Visible absorption spectroscopic analysis; format: nucleic-acid assay
A-375 [22] = experiment: Induction of cell cycle arrest in human A-375 cells assessed assessed as cell accumulation at G2/M phase at 5 uM incubated for 24 hrs by propidium iodide staining based flow cytometry (reference value: 15.70 %); format: functional
Quadruplex DNA [23] = experiment: Displacement of ThT from human G4-quadruplex c-kit2 DNA 5'- CGGGCGGGCGCGAGGGAGGGT-3' incubated for 0.5 hrs by SpectraMax M2 microplate reader analysis; format: nucleic-acid assay
A-375 [24] = experiment: Induction of cell cycle arrest in human A-375 cells assessed assessed as cell accumulation at S phase at 5 uM incubated for 24 hrs by propidium iodide staining based flow cytometry (reference value: 30.05 %); format: functional
A-375 [25] = experiment: Inhibition of RNA synthesis in human A-375 cells at 5 uM incubated for 24 hrs by EU incorporation based flow cytometry analysis; format: functional, cell-based
Quadruplex DNA [26] = experiment: Binding affinity to human G4-quadruplex 22AG DNA 5'- AGGGTTAGGGTTAGGGTTAGGG -3' at 20 uM by UV-Visible absorption spectroscopic analysis; format: nucleic-acid assay
Quadruplex DNA [27] = experiment: Binding affinity to human G4-quadruplex Oxy28 DNA 5'- GGGGTTTTGGGGTTTTGGGGTTTTGGGG -3' at 20 uM by UV-Visible absorption spectroscopic analysis; format: nucleic-acid assay
Salmon testes DNA = experiment: Displacement of Hoechst 33342 from salmon sperm DNA incubated for 0.5 hrs by SpectraMax M2 microplate reader analysis; format: nucleic-acid assay, Salmo salar
Quadruplex DNA [28] = experiment: Binding affinity to human G4-quadruplex Oxy28 DNA 5'- GGGGTTTTGGGGTTTTGGGGTTTTGGGG -3' at 10 uM by CD spectra analysis; format: nucleic-acid assay

DC50 (Calf thymus DNA): 14400 nM
DC50 (Quadruplex DNA [1]): 1980 nM
DC50 (Quadruplex DNA [2]): 990 nM
DC50 (dsDNA [4]): 2970 nM
Activity (Quadruplex DNA [6]): Active
DC50 (Quadruplex DNA [7]): 15500 nM
Kd (Quadruplex DNA [8]): 1520 nM
Activity (Quadruplex DNA [12]): Active
Activity (Quadruplex DNA [13]): Active
DC50 (Quadruplex DNA [14]): 590 nM
Activity (Quadruplex DNA [15]): Active
Activity (Quadruplex DNA [16]): inactive
DC50 (Quadruplex DNA [17]): 9080 nM
Activity (dsDNA [20]): Active
Activity (Quadruplex DNA [21]): Active
DC50 (Quadruplex DNA [23]): 1050 nM
Activity (Quadruplex DNA [26]): Active
Activity (Quadruplex DNA [27]): Active
DC50 (Salmon testes DNA): 10800 nM
Activity (Quadruplex DNA [28]): inactive
SMILES: COc1cc2c[n+](C)c3c4cc5c(cc4ccc3c2cc1OC)OCO5 [NITIDINE]
Activity (A-375 [3]): 2.03%
Activity (A-375 [5]): 60.4%
Activity (A-375 [9]): 6.7%
viability at 5 µM (A-375 [10]): 30.8%
Activity (A-375 [11]): 40.5%
Activity (A-375 [18]): Active
inhibition (A-375 [19]): Active
Activity (A-375 [22]): 29.3%
Activity (A-375 [24]): 30.21%
inhibition (A-375 [25]): Active
